Experimental data: patent US20090232867A1, “Modified conductive surfaces having active substances attached thereto” (Elutex Ltd., priority 2004, published 2009)

Tests used:
[1] = Paclitaxel release from coated stent or plate into phosphate buffer pH 7.4 with 0.3% SDS, HPLC; format: physicochemical; conditions: stents/plates coated with polypyrrole derivatives
Description: The release characteristic of the stent or plate was determined by placing drug-loaded device into buffer phosphate solution, pH 7.4, which contained 0.3% SDS, to increase the solubility of paclitaxel, and the daily release was determined by HPLC.

[2] = Paclitaxel release from pyrrole-functionalized PLA nanoparticles in 0.1N phosphate buffer; format: physicochemical; conditions: immersed in 0.1N phosphate buffer solution
Description: In a representative example, nanoparticles were prepared by dispersing a chloroform solution of a pyrrole polymer prepared as described hereinabove (0.1 gram), polylactic acid (0.4 grams, Mn=3,000) and paclitaxel (0.15 gram) in de-ionized water at room temperature with constant stirring.

## CC(=O)O[C@H]1C(=O)[C@@]2(C)[C@H]([C@H](OC(=O)c3ccccc3)[C@]3(O)C[C@H](OC(=O)[C@H](O)[C@@H](NC(=O)c4ccccc4)c4ccccc4)C(C)=C1C3(C)C)[C@]1(OC(C)=O)CO[C@@H]1C[C@@H]2O [paclitaxel]
[1]; after 3 days
  absorbed drug released into the buffer medium: about 50%
[1]
  duration of slow release of the remaining drug: over 3 weeks
[2]
  release of paclitaxel from nanoparticles: released constantly from these particles during two weeks
